# According to patent US6723755B2, “Method of treating rosacea” (priority 2002, dated 2004):
# System: rosacea
# Experiment: topical treatment of rosacea (related materials tested)
# Assay type: in vivo, humans
# Conditions: topical application
row,Compound,usefulness in the present invention (treatment of rosacea)
1,CC1CCC(C(C)C)C(O)C1 (stereo not drawn) [menthol],not to be useful
2,C1CCCCC1 [cyclohexane],not to be useful
3,"OCC1(CO)CC2C=CC1C2 (stereo not drawn) [5-norborene-2,2-dimethanol]",do not work
4,"OC1CCCC1O (stereo not drawn) [1,2-cyclopentanediol]",do not work
5,CC1(O)CCCCC1 [1-methylcyclohexanol],not to be useful
6,ClC1CCCCC1 [cyclohexyl chloride],not to be useful
7,OCCCCC1CCCCC1 [4-cyclohexyl-1-butanol],not to be useful
8,"CC1(C)[C@H]2C[C@H]1[C@@](C)(O)[C@@H](O)C2 [(1R,2R,3S,5S-(−))-pinanediol]",do not work
9,C1=CCCCC1 [cyclohexene],not to be useful
10,O=C(O)C1CCCCC1 [cyclohexyl carboxylic acid],not to be useful
11,CC(=O)OC1CCCCC1 [cyclohexyl acetate],not to be useful

# System: skin
# Experiment: skin irritation on topical application
# Assay type: in vivo
# Conditions: not given
row,Compound,irritation (reddening) of the skin to which it is applied
1,CC1CCC(C(C)C)C(O)C1 (stereo not drawn) [menthol],can irritate (and thereby redden) the skin
